According to patent US4257941A, “Polycyclic nitrogen-containing compounds” (BASF Aktiengesellschaft, priority 1976, dated 1981):

What was measured:
Euphorbia geniculata = test: Growth-regulating action, preemergence, greenhouse (Example 35, Table 2); assay type: in vivo; settings: for growth height relative: control 100
From the text: (§1) The vessels used for the experiments were plastic pots having a volume of 1,130 cm^3 (Table A) or paraffined paper cups having a volume of 170 cm^3 (Table B). The pots and cups were filled with a sandy loam. The seeds of the test plants-separated by species-were sown shallow. Preemergence treatment (soil treatment) was effected immediately after sowing and before germination of the seeds. Seeds lying on the surface came into contact with the active ingredients. Postemergence treatment (leaf treatment) took place at an average growth height of the plants (depending on the rate of growth) of from 6 to 10 cm. The substances were suspended, emulsified or dissolved in water as diluent and applied by means of fine nozzles. The vessels were kept in the greenhouse in a temperature range of 12° C. to 25° C., and were regularly sprinkler irrigated for the duration of the experiment. The observation period was 6 to 8 weeks.
(§2) Further experiments were carried out in the greenhouse under the condition described in Example 11. […] As the plants which were examined liked the warmth (Eupghorbia geniculate, Arachis hypogaea, Cynodon dactylon), they were kept at from 20°-30° C. Cynodon dactylon from seed was cut once and the young growth treated postemergence.

sunflowers = test: Action on sunflowers (Example 24); assay type: in vivo; settings: for Plant height relative: control 100
From the text: The active ingredients were applied both to the soil and to the leaves.

wheat = test: Growth height of wheat, greenhouse (Example 7); assay type: in vivo, wheat (Opal variety); settings: for Plant height relative: control 100
From the text: (§3) In the greenhouse, the four cereals wheat ("Opal" variety), rye ("Petkuser"), barley ("Villa") and oats ("Flamingskrone") were sown in plastic dishes 11.5 cm in diameter in a sandy loam adequately supplied with nutrients. The active ingredients were applied at various rates to the soil and to the leaves. When applied to the soil, the active ingredient were sprayed onto the surface of the soil on the day of sowing; in the case of leaf treatment, the leaves were sprayed in the usual manner at a growth height of the plants of 10 cm. During the 18 day growth period, the treated plants grew much more slowly than the untreated control, a fact later confirmed by measurements of the stem length. Measurements were taken of 100 plants from each series.
(§4) The prior art agent used for comparison purposes was N-2-chloroethyl-N,N,N-trimethylammonium chloride (CCC; German Printed Application DAS No. 1,294,734).

rice = test: Action on rice (Example 23); assay type: in vivo; settings: leaf; for Plant height: 66 days; for Plant height relative: control 100
Procedure: At a growth height of 11 to 13 cm the active ingredients were sprayed onto the leaves in the usual manner. The plants were measured after 66 days.

rye = test: Growth height of rye, greenhouse (Example 8); assay type: in vivo, rye (Petkuser); settings: for Plant height relative: control 100
From the text: as §3, §4

barley = test: Growth height of barley, greenhouse (Example 9); assay type: in vivo, barley (Villa); settings: for Plant height relative: control 100
From the text: as §3, §4

cotton = test: Induction of flowering and growth height of cotton, hydroponic (Example 18); assay type: in vivo; settings: for Shoot length: 4 weeks; for No. of squares per vessel (3 plants): control 0, average of 3 vessels; for Shoot length rel.: control 100
Procedure: Cotton plants were subjected to hydroponic treatment under the same conditions as in Example 16. The active ingredients were added (1.25 mg/vessel=0.3 ppm and 5 mg/vessel=1.25 ppm) at a height of the plant of 15 to 18 cm. […] The results below are averages from 3 vessels, each of 3 plants.

oats = test: Growth height of oats, greenhouse (Example 10); assay type: in vivo, oats (Flamingskrone); settings: for Plant height relative: control 100
From the text: as §3, §4

spring barley = test: Stem length, lateral shoots and yield in spring barley (Example 12); assay type: in vivo; settings: 3 kg/ha
Procedure: To examine the effect of the various substances on spring barley up to the maturity stage of the plants, an experiment was carried out in large pots. The plants were grown in quartz sand (fertilized with 2 g N as ammonium nitrate in 3 doses, 1 g P2 O5 as secondary sodium phosphate, 1.5 g K2 O as potassium sulfate, 0.5 g MgO as magnesium sulfate, 10 ml of a solution of trace elements, and 10 mg of iron as an iron complex). […] The treated plants were up to 10% shorter than the control, and yields were also slightly up.

Hordeum vulgare = test: Growth height of young cereal plants (Example 11, Table A); assay type: in vivo; settings: soil treatment
From the text: as §1

Triticum aestivum = test: as above; assay type: in vivo
From the text: as §1

Arachis hypogaea = test: Growth-regulating action, postemergence, greenhouse (Example 35, Table 1); assay type: in vivo; settings: for growth height relative: control 100
From the text: as §1, §2

Cynodon dactylon = test: as above; assay type: in vivo; settings: for growth height relative: control 100
From the text: as §1, §2

CN(C)NC(=O)CCC(=O)O [drawing 439]
Growth height (Euphorbia geniculata; 0.25 kg/ha): 12 cm | growth height relative (Euphorbia geniculata; 0.25 kg/ha): 109 | Growth height (Euphorbia geniculata; 0.5 kg/ha): 12 cm | growth height relative (Euphorbia geniculata; 0.5 kg/ha): 109 | Growth height (Euphorbia geniculata; 1.0 kg/ha): 10 cm | growth height relative (Euphorbia geniculata; 1.0 kg/ha): 91

FC(F)(F)c1cccc(N2C3C4CC(C5N=NC45)C32)c1 (stereo not shown) [drawing 438]
Growth height (Euphorbia geniculata; 0.25 kg/ha): 6 cm | growth height relative (Euphorbia geniculata; 0.25 kg/ha): 54 | Growth height (Euphorbia geniculata; 0.5 kg/ha): 5 cm | growth height relative (Euphorbia geniculata; 0.5 kg/ha): 45 | Growth height (Euphorbia geniculata; 1.0 kg/ha): 3 cm | growth height relative (Euphorbia geniculata; 1.0 kg/ha): 27

C[N+](C)(C)CCCl.[Cl-] [CCC, N-2-chloroethyl-N,N,N-trimethylammonium chloride, reference compound]
Plant height (sunflowers; leaf, 1.5 kg/ha): 38.0 cm | Plant height relative (sunflowers; leaf, 1.5 kg/ha): 99 | Plant height (sunflowers; leaf, 6.0 kg/ha): 32.5 cm | Plant height relative (sunflowers; leaf, 6.0 kg/ha): 85 | Plant height (sunflowers; soil, 3.0 kg/ha): 40.0 cm | Plant height relative (sunflowers; soil, 3.0 kg/ha): 110 | Plant height (sunflowers; soil, 12.0 kg/ha): 36.0 cm | Plant height relative (sunflowers; soil, 12.0 kg/ha): 99 | Plant height (wheat; leaf, 0.125 kg/ha): 28.0 cm | Plant height relative (wheat; leaf, 0.125 kg/ha): 93.3 | Plant height (wheat; leaf, 0.5 kg/ha): 26.0 cm | Plant height relative (wheat; leaf, 0.5 kg/ha): 86.7 | Plant height (wheat; leaf, 1.0 kg/ha): 26.0 cm | Plant height relative (wheat; leaf, 1.0 kg/ha): 86.7 | Plant height (wheat; leaf, 2.0 kg/ha): 23.0 cm | Plant height relative (wheat; leaf, 2.0 kg/ha): 76.7 | Plant height (wheat; leaf, 4.0 kg/ha): 23.0 cm | Plant height relative (wheat; leaf, 4.0 kg/ha): 76.7 | Plant height (wheat; soil, 0.5 kg/ha): 26.0 cm | Plant height relative (wheat; soil, 0.5 kg/ha): 83.9 | Plant height (wheat; soil, 1.0 kg/ha): 24.5 cm | Plant height relative (wheat; soil, 1.0 kg/ha): 79.0 | Plant height (wheat; soil, 2.0 kg/ha): 22.5 cm | Plant height relative (wheat; soil, 2.0 kg/ha): 72.6 | Plant height (wheat; soil, 6.0 kg/ha): 22.0 cm | Plant height relative (wheat; soil, 6.0 kg/ha): 71.0 | Plant height (rice; 1.0 kg/ha): 38.0 cm | Plant height relative (rice; 1.0 kg/ha): 93.6 | Plant height (rice; 2.0 kg/ha): 40.5 cm | Plant height relative (rice; 2.0 kg/ha): 99.8 | Plant height (rice; 4.0 kg/ha): 38.5 cm | Plant height relative (rice; 4.0 kg/ha): 94.8 | Plant height (rice; 6.0 kg/ha): 40.0 cm | Plant height relative (rice; 6.0 kg/ha): 98.5 | Plant height (rye; leaf, 0.125 kg/ha): 29.0 cm | Plant height relative (rye; leaf, 0.125 kg/ha): 98.3 | Plant height (rye; leaf, 0.5 kg/ha): 28.0 cm | Plant height relative (rye; leaf, 0.5 kg/ha): 94.9 | Plant height (rye; leaf, 1.0 kg/ha): 27.5 cm | Plant height relative (rye; leaf, 1.0 kg/ha): 93.2 | Plant height (rye; leaf, 2.0 kg/ha): 27.5 cm | Plant height relative (rye; leaf, 2.0 kg/ha): 93.2 | Plant height (rye; leaf, 4.0 kg/ha): 29.0 cm | Plant height relative (rye; leaf, 4.0 kg/ha): 98.3 | Plant height (rye; soil, 0.5 kg/ha): 28.0 cm | Plant height relative (rye; soil, 0.5 kg/ha): 96.6 | Plant height (rye; soil, 1.0 kg/ha): 27.5 cm | Plant height relative (rye; soil, 1.0 kg/ha): 94.8 | Plant height (rye; soil, 2.0 kg/ha): 28.0 cm | Plant height relative (rye; soil, 2.0 kg/ha): 96.6 | Plant height (rye; soil, 6.0 kg/ha): 26.5 cm | Plant height relative (rye; soil, 6.0 kg/ha): 91.4 | Plant height (barley; leaf, 0.125 kg/ha): 29.0 cm | Plant height relative (barley; leaf, 0.125 kg/ha): 96.7 | Plant height (barley; leaf, 0.5 kg/ha): 28.5 cm | Plant height relative (barley; leaf, 0.5 kg/ha): 95.0 | Plant height (barley; leaf, 1.0 kg/ha): 26.5 cm | Plant height relative (barley; leaf, 1.0 kg/ha): 88.3 | Plant height (barley; leaf, 2.0 kg/ha): 27.0 cm | Plant height relative (barley; leaf, 2.0 kg/ha): 90.0 | Plant height (barley; leaf, 4.0 kg/ha): 27.0 cm | Plant height relative (barley; leaf, 4.0 kg/ha): 90.0 | Plant height (barley; soil, 0.5 kg/ha): 28.0 cm | Plant height relative (barley; soil, 0.5 kg/ha): 88.9 | Plant height (barley; soil, 1.0 kg/ha): 27.0 cm | Plant height relative (barley; soil, 1.0 kg/ha): 85.7 | Plant height (barley; soil, 2.0 kg/ha): 26.0 cm | Plant height relative (barley; soil, 2.0 kg/ha): 82.5 | Plant height (barley; soil, 6.0 kg/ha): 25.0 cm | Plant height relative (barley; soil, 6.0 kg/ha): 79.4 | Shoot length (cotton; 0.3 ppm): 36.2 cm | No. of squares per vessel (3 plants) (cotton; 0.3 ppm): 0 | Shoot length rel. (cotton; 0.3 ppm): 76.7 | Shoot length (cotton; 1.25 ppm): 34.8 cm | No. of squares per vessel (3 plants) (cotton; 1.25 ppm): 0 | Shoot length rel. (cotton; 1.25 ppm): 73.8 | buds / squares (cotton; 4 week growth period): withered in the nascent stage and dropped off | Plant height (oats; leaf, 0.125 kg/ha): 28.0 cm | Plant height relative (oats; leaf, 0.125 kg/ha): 100 | Plant height (oats; leaf, 0.5 kg/ha): 28.5 cm | Plant height relative (oats; leaf, 0.5 kg/ha): 101.8 | Plant height (oats; leaf, 1.0 kg/ha): 28.0 cm | Plant height relative (oats; leaf, 1.0 kg/ha): 100 | Plant height (oats; leaf, 2.0 kg/ha): 27.0 cm | Plant height relative (oats; leaf, 2.0 kg/ha): 96.4 | Plant height (oats; leaf, 4.0 kg/ha): 25.5 cm | Plant height relative (oats; leaf, 4.0 kg/ha): 91.1 | Plant height (oats; soil, 0.5 kg/ha): 28.0 cm | Plant height relative (oats; soil, 0.5 kg/ha): 100 | Plant height (oats; soil, 1.0 kg/ha): 28.0 cm | Plant height relative (oats; soil, 1.0 kg/ha): 100 | Plant height (oats; soil, 2.0 kg/ha): 27.0 cm | Plant height relative (oats; soil, 2.0 kg/ha): 96.4 | Plant height (oats; soil, 6.0 kg/ha): 26.0 cm | Plant height relative (oats; soil, 6.0 kg/ha): 92.9 | Ear weight (spring barley): 95.0 g | No. of lateral shoots (spring barley): 99 | Stem length (spring barley): 74.2 cm | Ear weight relative (spring barley; control 100): 105.1 | No. of lateral shoots relative (spring barley; control 100): 106.5 | Stem length relative (spring barley; control 100): 96.5 | Growth height (Hordeum vulgare; 0.5 kg/ha): 36 cm | Growth height (Hordeum vulgare; 1.0 kg/ha): 31 cm | Growth height (Hordeum vulgare; 2.0 kg/ha): 33 cm | Growth height (Triticum aestivum; leaf treatment, 0.5 kg/ha): 40 cm | Growth height (Triticum aestivum; leaf treatment, 1.0 kg/ha): 40 cm | Growth height (Triticum aestivum; leaf treatment, 2.0 kg/ha): 40 cm | Growth height (Triticum aestivum; soil treatment, 0.5 kg/ha): 40 cm | Growth height (Triticum aestivum; soil treatment, 1.0 kg/ha): 40 cm | Growth height (Triticum aestivum; soil treatment, 2.0 kg/ha): 33 cm

C[N+](C)(C)CCCl [[ClCH2CH2N(CH3⊕)3]Cl⊖, reference compound]
Growth height (Euphorbia geniculata; 0.25 kg/ha): 10 cm | growth height relative (Euphorbia geniculata; 0.25 kg/ha): 91 | Growth height (Euphorbia geniculata; 0.5 kg/ha): 10 cm | growth height relative (Euphorbia geniculata; 0.5 kg/ha): 91 | Growth height (Euphorbia geniculata; 1.0 kg/ha): 9 cm | growth height relative (Euphorbia geniculata; 1.0 kg/ha): 82 | Growth height (Arachis hypogaea; 0.5 kg/ha): 16 cm | growth height relative (Arachis hypogaea; 0.5 kg/ha): 100 | Growth height (Arachis hypogaea; 2.0 kg/ha): 14 cm | growth height relative (Arachis hypogaea; 2.0 kg/ha): 87 | Growth height (Cynodon dactylon; 0.5 kg/ha): 9 cm | growth height relative (Cynodon dactylon; 0.5 kg/ha): 82 | Growth height (Cynodon dactylon; 2.0 kg/ha): 9 cm | growth height relative (Cynodon dactylon; 2.0 kg/ha): 82
